Source: the supplement of paper PMC13380429

Legend:
[1] = tested on: A549-ACE2 infected with SARS-CoV-2; test: cell count relative to DMSO; higher = less toxic; settings: 24 h
Caco-2 [2] = test: cell viability relative to DMSO; higher = less toxic; settings: 72 h
Calu-3 [3] = test: as above; settings: 72 h
HepG2 [4] = test: as above; settings: 72 h
U2OS [5] = test: as above; settings: 72 h
Vero E6 [6] = test: as above; settings: 72 h
[7] = tested on: A549-ACE2 infected with SARS-CoV-2; test: SARS-CoV-2 infection rate relative to DMSO; higher = more infection; settings: 24 h
A549-ACE2 [8] = test: phospholipidosis EC50; higher = less potent phospholipidosis inducer
A549-ACE2 [9] = test: drug-induced phospholipidosis relative to tamoxifen; higher = more phospholipidosis
[10] = tested on: A549-ACE2 infected with SARS-CoV-2; test: morphology score (similarity to uninfected cells); higher = more like uninfected cells; settings: 24 h
Caco-2 [11] = test: relative viability EC50 (midpoint between 100% and the lowest measured viability); higher = less toxic; settings: 72 h
Calu-3 [12] = test: as above; settings: 72 h
HepG2 [13] = test: as above; settings: 72 h
U2OS [14] = test: as above; settings: 72 h
Vero E6 [15] = test: as above; settings: 72 h
Caco-2 [16] = test: drug sensitivity score (DSS) for viability; higher = more toxic; extreme values may be limits of the assay; settings: 72 h
Calu-3 [17] = test: as above; settings: 72 h
HepG2 [18] = test: as above; settings: 72 h
U2OS [19] = test: as above; settings: 72 h
Vero E6 [20] = test: as above; settings: 72 h

COc1cccc(CCc2ccccc2OCC[C@@H]2C[C@@H](O)CN2C)c1
Settings	SARS-CoV-2 infection rate [%]	cell count [%]	cell viability [%]	morphology score	phospholipidosis EC50 [µM]
A549-ACE2 [8], 24 h	–	–	–	–	4.19
A549-ACE2 [8], 48 h	–	–	–	–	6.86
A549-ACE2 [8], 72 h	–	–	–	–	13.6
Caco-2 [2], 1 nM	–	–	96.1	–	–
Caco-2 [2], 10 nM	–	–	97.4	–	–
Caco-2 [2], 100 nM	–	–	104	–	–
Caco-2 [2], 1000 nM	–	–	85.9	–	–
Caco-2 [2], 10000 nM	–	–	90	–	–
Calu-3 [3], 1 nM	–	–	101	–	–
Calu-3 [3], 10 nM	–	–	92.9	–	–
Calu-3 [3], 100 nM	–	–	97.2	–	–
Calu-3 [3], 1000 nM	–	–	91.6	–	–
Calu-3 [3], 10000 nM	–	–	80.2	–	–
HepG2 [4], 1 nM	–	–	86.5	–	–
HepG2 [4], 10 nM	–	–	91.3	–	–
HepG2 [4], 100 nM	–	–	85.7	–	–
HepG2 [4], 1000 nM	–	–	96.8	–	–
HepG2 [4], 10000 nM	–	–	74.2	–	–
U2OS [5], 1 nM	–	–	101	–	–
U2OS [5], 10 nM	–	–	98.4	–	–
U2OS [5], 100 nM	–	–	100	–	–
U2OS [5], 1000 nM	–	–	98.3	–	–
U2OS [5], 10000 nM	–	–	92.9	–	–
Vero E6 [6], 1 nM	–	–	105	–	–
Vero E6 [6], 10 nM	–	–	102	–	–
Vero E6 [6], 100 nM	–	–	97.5	–	–
Vero E6 [6], 1000 nM	–	–	98.8	–	–
Vero E6 [6], 10000 nM	–	–	84.9	–	–
[1], 0.3 µM	–	97	–	–	–
[1], 3 µM	–	111	–	–	–
[1], 10 µM	–	119	–	–	–
[1], 30 µM	–	99	–	–	–
[7], 0.3 µM	105	–	–	–	–
[7], 3 µM	62	–	–	–	–
[7], 10 µM	22	–	–	–	–
[7], 30 µM	20	–	–	–	–
[10], 0.3 µM	–	–	–	-0.09	–
[10], 3 µM	–	–	–	0.68	–
[10], 10 µM	–	–	–	0.87	–
[10], 30 µM	–	–	–	0.46	–

drug-induced phospholipidosis [%], A549-ACE2 [9]
Settings	0.3 µM	0.833333 µM	3.33333 µM	6.66667 µM	10 µM	30 µM
24 h	0.95	6.59	62.7	89.3	95.1	128
48 h	5.49	6.45	45.9	81.8	98.6	139
72 h	4.74	4.21	42.1	79.5	98.4	166

Settings	drug sensitivity score	relative viability EC50 [µM]
Caco-2 [11]	–	> 10
Caco-2 [16]	1	–
Calu-3 [12]	–	> 10
Calu-3 [17]	0.9	–
HepG2 [13]	–	> 10
HepG2 [18]	0	–
U2OS [14]	–	> 10
U2OS [19]	0	–
Vero E6 [15]	–	> 10
Vero E6 [20]	0.3	–

CCOc1ccc(-c2nc(-c3cccc4c3CCC4NCCO)no2)cc1OCC (stereo not given) [CYM-5442]
Settings	SARS-CoV-2 infection rate [%]	cell count [%]	cell viability [%]	morphology score	phospholipidosis EC50 [µM]
A549-ACE2 [8], 24 h	–	–	–	–	2.26
A549-ACE2 [8], 48 h	–	–	–	–	3.87
A549-ACE2 [8], 72 h	–	–	–	–	4.72
Caco-2 [2], 1 nM	–	–	91	–	–
Caco-2 [2], 10 nM	–	–	96.9	–	–
Caco-2 [2], 100 nM	–	–	102	–	–
Caco-2 [2], 1000 nM	–	–	99.2	–	–
Caco-2 [2], 10000 nM	–	–	71.7	–	–
Calu-3 [3], 1 nM	–	–	94.6	–	–
Calu-3 [3], 10 nM	–	–	95.2	–	–
Calu-3 [3], 100 nM	–	–	91.2	–	–
Calu-3 [3], 1000 nM	–	–	104	–	–
Calu-3 [3], 10000 nM	–	–	92.8	–	–
HepG2 [4], 1 nM	–	–	97.5	–	–
HepG2 [4], 10 nM	–	–	101	–	–
HepG2 [4], 100 nM	–	–	90.5	–	–
HepG2 [4], 1000 nM	–	–	97.2	–	–
HepG2 [4], 10000 nM	–	–	78.8	–	–
U2OS [5], 1 nM	–	–	99	–	–
U2OS [5], 10 nM	–	–	95.7	–	–
U2OS [5], 100 nM	–	–	103	–	–
U2OS [5], 1000 nM	–	–	97	–	–
U2OS [5], 10000 nM	–	–	90.5	–	–
Vero E6 [6], 1 nM	–	–	90.7	–	–
Vero E6 [6], 10 nM	–	–	102	–	–
Vero E6 [6], 100 nM	–	–	84.5	–	–
Vero E6 [6], 1000 nM	–	–	94.7	–	–
Vero E6 [6], 10000 nM	–	–	99.1	–	–
[1], 0.3 µM	–	100	–	–	–
[1], 3 µM	–	118	–	–	–
[1], 10 µM	–	113	–	–	–
[1], 30 µM	–	104	–	–	–
[7], 0.3 µM	96	–	–	–	–
[7], 3 µM	55	–	–	–	–
[7], 10 µM	13	–	–	–	–
[7], 30 µM	19	–	–	–	–
[10], 0.3 µM	–	–	–	0.19	–
[10], 3 µM	–	–	–	0.72	–
[10], 10 µM	–	–	–	0.84	–
[10], 30 µM	–	–	–	0.63	–

drug-induced phospholipidosis [%], A549-ACE2 [9]
Settings	0.3 µM	0.833333 µM	3.33333 µM	6.66667 µM	10 µM	30 µM
24 h	3.28	18.4	62.3	81.5	100	87.8
48 h	3.02	11.2	44.6	72.9	96	93.9
72 h	0.284	11.6	36.7	67.4	106	99.3

Settings	drug sensitivity score	relative viability EC50 [µM]
Caco-2 [16]	1.3	–
Calu-3 [12]	–	> 10
Calu-3 [17]	0	–
HepG2 [13]	–	> 10
HepG2 [18]	1.1	–
U2OS [14]	–	> 10
U2OS [19]	0	–
Vero E6 [15]	–	> 10
Vero E6 [20]	0	–
